Data taken from patent US20210228545A1, “METHODS OF TREATING CONDITIONS RELATED TO THE S1P1 RECEPTOR” (Arena Pharmaceuticals, Inc., priority 2018, published 2021).

Assays:
[1] = male Sprague-Dawley rats; cited from earlier work
BCRP = molecular target: T1, BCRP (Homo sapiens, UniProt Q9UNQ0); test: Transporter inhibition, MDCKII-BCRP cells; assay type: in vitro ADME
T1 sequence (Q9UNQ0 1-655): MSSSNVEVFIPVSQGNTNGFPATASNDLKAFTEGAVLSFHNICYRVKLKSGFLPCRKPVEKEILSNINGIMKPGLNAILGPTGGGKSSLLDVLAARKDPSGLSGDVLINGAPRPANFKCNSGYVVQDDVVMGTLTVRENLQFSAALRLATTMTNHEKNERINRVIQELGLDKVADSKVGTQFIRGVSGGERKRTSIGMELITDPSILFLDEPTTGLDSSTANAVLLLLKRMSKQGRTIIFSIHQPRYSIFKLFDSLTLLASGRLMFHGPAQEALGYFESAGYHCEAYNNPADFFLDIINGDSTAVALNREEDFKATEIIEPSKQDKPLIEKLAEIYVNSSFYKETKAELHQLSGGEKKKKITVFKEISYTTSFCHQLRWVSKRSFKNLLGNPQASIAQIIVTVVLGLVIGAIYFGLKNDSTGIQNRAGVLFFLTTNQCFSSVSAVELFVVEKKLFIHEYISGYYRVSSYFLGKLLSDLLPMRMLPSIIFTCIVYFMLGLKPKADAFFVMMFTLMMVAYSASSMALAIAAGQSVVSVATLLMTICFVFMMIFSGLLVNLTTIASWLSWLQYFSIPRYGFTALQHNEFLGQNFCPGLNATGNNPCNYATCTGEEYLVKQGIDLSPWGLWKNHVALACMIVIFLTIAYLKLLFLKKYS

OCT1 = molecular target: T2, OCT1 (Homo sapiens, UniProt O15245); test: Transporter inhibition, HEK293 cells; assay type: in vitro ADME
T2 construct: expressed in transfected cells; host or cells: HEK293
T2 sequence (O15245 1-554): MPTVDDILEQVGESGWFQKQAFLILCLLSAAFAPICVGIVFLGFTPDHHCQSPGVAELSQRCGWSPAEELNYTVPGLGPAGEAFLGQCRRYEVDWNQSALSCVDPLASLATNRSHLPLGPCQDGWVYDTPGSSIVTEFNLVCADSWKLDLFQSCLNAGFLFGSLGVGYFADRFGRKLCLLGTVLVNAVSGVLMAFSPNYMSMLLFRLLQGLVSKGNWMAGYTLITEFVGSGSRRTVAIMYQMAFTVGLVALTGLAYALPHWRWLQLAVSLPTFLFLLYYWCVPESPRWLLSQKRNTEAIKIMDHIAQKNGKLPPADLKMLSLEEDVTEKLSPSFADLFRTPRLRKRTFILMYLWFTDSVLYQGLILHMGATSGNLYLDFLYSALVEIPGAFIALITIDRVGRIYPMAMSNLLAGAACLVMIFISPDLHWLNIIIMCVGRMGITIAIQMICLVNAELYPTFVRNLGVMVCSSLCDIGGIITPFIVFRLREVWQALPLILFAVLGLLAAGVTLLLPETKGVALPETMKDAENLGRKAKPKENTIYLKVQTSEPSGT

OATP1B1 = molecular target: T3, OATP1B1 (Homo sapiens, UniProt Q9Y6L6); test: Transporter inhibition, HEK293 cells
T3 sequence (Q9Y6L6 1-691): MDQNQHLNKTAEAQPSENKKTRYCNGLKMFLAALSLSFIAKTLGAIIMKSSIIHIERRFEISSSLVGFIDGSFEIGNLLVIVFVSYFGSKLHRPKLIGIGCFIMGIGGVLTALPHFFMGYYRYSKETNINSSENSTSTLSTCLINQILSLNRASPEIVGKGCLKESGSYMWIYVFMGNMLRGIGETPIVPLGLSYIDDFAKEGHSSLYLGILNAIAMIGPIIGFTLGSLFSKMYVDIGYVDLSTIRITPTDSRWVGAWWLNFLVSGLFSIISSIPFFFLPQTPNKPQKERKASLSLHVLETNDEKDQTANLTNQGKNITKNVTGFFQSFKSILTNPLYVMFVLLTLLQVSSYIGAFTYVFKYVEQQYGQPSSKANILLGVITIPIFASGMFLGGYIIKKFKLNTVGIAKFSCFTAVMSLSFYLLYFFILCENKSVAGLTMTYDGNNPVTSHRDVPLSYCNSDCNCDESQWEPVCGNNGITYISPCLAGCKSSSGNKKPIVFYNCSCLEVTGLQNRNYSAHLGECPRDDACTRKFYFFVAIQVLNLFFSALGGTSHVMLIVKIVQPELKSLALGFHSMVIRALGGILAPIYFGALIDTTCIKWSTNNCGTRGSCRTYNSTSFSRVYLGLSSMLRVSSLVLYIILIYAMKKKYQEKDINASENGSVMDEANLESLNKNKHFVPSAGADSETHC

OAT3 = molecular target: T4, OAT3 (Homo sapiens, UniProt Q8TCC7); test: Transporter inhibition, HEK293 cells; assay type: in vitro ADME
T4 construct: expressed in transfected cells; host or cells: HEK293
T4 sequence (Q8TCC7 1-542): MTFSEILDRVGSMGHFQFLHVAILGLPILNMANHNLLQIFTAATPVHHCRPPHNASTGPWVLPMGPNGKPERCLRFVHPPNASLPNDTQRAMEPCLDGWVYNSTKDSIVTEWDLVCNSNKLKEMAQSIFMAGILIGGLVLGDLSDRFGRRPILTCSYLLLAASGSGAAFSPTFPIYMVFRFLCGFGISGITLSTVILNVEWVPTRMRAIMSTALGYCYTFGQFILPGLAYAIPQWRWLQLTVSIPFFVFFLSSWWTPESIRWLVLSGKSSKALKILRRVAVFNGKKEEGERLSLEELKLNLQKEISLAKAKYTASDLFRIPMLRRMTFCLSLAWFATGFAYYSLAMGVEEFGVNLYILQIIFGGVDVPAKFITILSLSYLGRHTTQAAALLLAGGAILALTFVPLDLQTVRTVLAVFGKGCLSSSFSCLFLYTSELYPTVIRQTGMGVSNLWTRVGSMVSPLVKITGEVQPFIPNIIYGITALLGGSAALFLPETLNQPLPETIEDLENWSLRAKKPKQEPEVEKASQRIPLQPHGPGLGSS

**Q.** What does the source list for `O=C(O)C[C@H]1CCc2c1[nH]c1ccc(OCc3ccc(C4CCCC4)c(C(F)(F)F)c3)cc21` [Compound 1, (R)-2-(7-(4-cyclopentyl-3-(trifluoromethyl)benzyloxy)-1,2,3,4-tetrahydrocyclopenta[b]indol-3-yl)acetic acid]?
**A.** Bradycardia [1]: no or substantially no bradycardia; Reduction of corrected efflux ratio of prazosin (1 μM) across MDCKII-BCRP cells (BCRP; 10 and 100 μM, post-assay TEER below acceptance criteria): more than 50%; IC50 (BCRP; MDCKII-BCRP cells, prazosin (1 μM), 0.03 to 30 μM): 35.7 µM; Reduction of uptake rate of tetraethylammonium bromide into OCT1-expressing cells (inhibition) (OCT1; 1 and 10 μM): less than 50%; IC50 (OCT1; HEK293 cells, [14C]-tetraethylammonium bromide (5 μM), 1 and 10 μM tested): > 10 µM; OATP1B1 inhibition (OATP1B1; 1 μM Compound 1): no OATP1B1 inhibition; Reduction of uptake rate of [3H]-estradiol-17β-glucuronide (50 nM) into OATP1B1-expressing cells (OATP1B1; 10 μM Compound 1): ~50%; Reduction of uptake rate of estrone-3-sulfate into OAT3-expressing cells (inhibition) (OAT3; 1 and 10 μM): less than 50%; IC50 (OAT3; HEK293 cells, [3H]-estrone-3-sulfate (50 nM), 1 and 10 μM tested): > 10 µM
